Data: patent US20260335293A1, “USE OF NOVEL COMPOUND FOR TREATING INTRACTABLE DISEASES” (YJ CERAPEUTICS INC., priority 2023, published 2026)

Assays:
bladder wall = experiment: Bladder hypertrophy (bladder wall thickness, H&E) in SCI model; format: in vivo, Sprague-Dawley rats; conditions: 5 mg/kg i.p., day 1 after SCI
ZO-1 = experiment: Tight junction protein ZO-1 in bladder of SCI model, Western blot; format: in vivo, Sprague-Dawley rats; conditions: SCI day 1, Western blot
MPO-positive neutrophils = experiment: Introduction of neutrophils (MPO) into bladder of SCI model, immunofluorescence; format: in vivo, Sprague-Dawley rats; conditions: day 1 after SCI
NGF / proNGF = experiment: NGF mRNA and proNGF in bladder tissue of SCI model, RT-PCR and Western blot; format: in vivo, Sprague-Dawley rats; conditions: bladder tissue after SCI
Experimental: In order to confirm the effect of YJ102 (Chemical Formula 1), a compound of the present disclosure, on urinary disturbances caused by spinal cord injury, immediately after preparing the traumatic spinal cord injury (SCI) model (FIG. 1A) prepared in Example 1 above, YJ102 was dissolved in DMSO, methyl pyrrolidinone, and water (1:1.5:1) and administered intraperitoneally at 5 mg/kg, and then intraperitoneally administered at 24-hour intervals for 7 days from the next day. Thereafter, the effect of improving bladder functions was analyzed through a residual urine volume test and a urinary bladder function score (UBFS). At this time, a Vehicle group was administered with the same amount of a solution of DMSO, methyl pyrrolidinone, and water. Specifically, in order to determine the amount of urine remaining in the bladder after spinal cord injury, bladder extrusion was performed twice a day by applying pressure to the central bottom portion of the lower abdomen using the index and middle fingers to empty the bladder, and the expelled urine was collected in a catheter and its volume was recorded. […]

[1] = tested on: inflammatory factors in Raw 264.7 cell line; experiment: Inflammatory factor mRNA in LPS-stimulated Raw 264.7 macrophage cell line, RT-PCR; format: cell-based; conditions: LPS-treated Raw 264.7, RT-PCR
Experimental: In order to determine whether YJ102 affected the production of proNGF as a ligand of p75, the expression of proNGF in the bladder was confirmed by RT-PCR, Western blot analysis, and immunofluorescence staining. In addition, for further verification, a macrophage cell line Raw 264.7 (Korea Cell Line Bank, Seoul, Korea) was stimulated with 1 μg/ml of LPS, and the effect of YJ102 on the production of proNGF was investigated. At this time, YJ102 was dissolved in DMSO and treated 30 minutes before LPS treatment.
To confirm the effect of YJ102 on the expression of inflammatory factors in the bladder after spinal cord injury, the expression of inflammatory cytokines and chemokines, COX-2, iNOS, IL-6, IL-1β, MIP-1α, MIP-1β, MIP-2a, and Gro-α in bladder tissue was confirmed by RT-PCR analysis and Western blot analysis using the primers in Table 2 above. In addition, even in the Raw 264.7 cell line, the expression was verified by RT-PCR analysis.

CCc1ccc(N(C(=O)COC)c2nc3cc(Cl)ccc3o2)cc1 [YJ102]
significantly inhibited: reduction in amount of ZO-1 (ZO-1) | introduction of MPO-positive neutrophils into the bladder (MPO-positive neutrophils) | NGF mRNA expression (NGF / proNGF) | proNGF production (NGF / proNGF)
significantly reduced: thickness of lamina propria (bladder wall) | thickness of muscle layer (bladder wall) | thickness of urothelium layer (bladder wall) | mRNA level of COX-2 [1] | mRNA level of IL-1β [1] | mRNA level of IL-6 [1] | mRNA level of TNF-α [1] | mRNA level of iNOS [1]
